The source of these data is PubChem BioAssay (NCI).

SMILES strings stand for the structures.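 96-well plates; 48 h exposure; 5 concentrations. Endpoints by linear interpolation between flanking doses. Not reached: highest tested concentration assigned. GI50 is the concentration that inhibits growth by half. Definition used: TGI = concentration required for complete inhibition of growth.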

Among the test systems are A549 NSCLC; HT29 colon; HOP-92 NSCLC; UO-31 renal; CCRF-CEM leukemia; SK-OV-3 ovarian; OVCAR-4 ovarian; SW-620 colon; SR leukemia.
Common to all, as to test: NCI tumour cell line growth inhibition, 48 h

Take `COc1cc2nncc(Sc3cnnc4ccccc34)c2cc1OC`: the TGI in the assay on A549 NSCLC was 71.9 µM; in the assay with HT29 colon, 59.1 µM; in the assay with HOP-92 NSCLC it was above 100 µM; in the assay with UO-31 renal, 47.9 µM; in the assay on CCRF-CEM leukemia, 73.9 µM; in the assay on SK-OV-3 ovarian it was 76.6 µM. The figures for the TGI with OVCAR-4 ovarian and in the assay on SW-620 colon were above 100 µM and 41.3 µM, respectively.

With `Clc1ccc([O][In]([O]c2ccc(Cl)cn2)[O]c2ccc(Cl)cn2)nc1`, the GI50 with A549 NSCLC was above 100 µM; in the assay on HT29 colon it was above 100 µM; with UO-31 renal it was above 100 µM; in the assay on CCRF-CEM leukemia, above 100 µM; with SK-OV-3 ovarian, 64.4 µM; in the assay with OVCAR-4 ovarian it was above 100 µM. In addition, the GI50 with SR leukemia and with SW-620 colon was above 100 µM in each case. The TGI in the assay with A549 NSCLC, with HT29 colon, in the assay with UO-31 renal, in the assay on CCRF-CEM leukemia, in the assay on SK-OV-3 ovarian and in the assay on OVCAR-4 ovarian was above 100 µM each time. Further, the TGI in the assay on SR leukemia and in the assay with SW-620 colon was above 100 µM in each case.

Regarding `CC(C)N(C(C)C)[PH+]1O[PH+](N(C(C)C)C(C)C)O[PH+](N(C(C)C)C(C)C)O[PH+](N(C(C)C)C(C)C)O[PH+](N(C(C)C)C(C)C)O1.[C-]#[O+].[C-]#[O+].[C-]#[O+].[C-]#[O+].[C-]#[O+].[C-]#[O+].[C-]#[O+].[Cr].[Cr]` (centres undefined), the GI50 with A549 NSCLC, in the assay on HT29 colon, in the assay with HOP-92 NSCLC, with UO-31 renal, with CCRF-CEM leukemia and in the assay with SK-OV-3 ovarian was above 100 µM throughout. In addition, the GI50 with OVCAR-4 ovarian and in the assay on SW-620 colon was above 100 µM each time. For the same compound, the TGI in the assay with A549 NSCLC, in the assay with HT29 colon, in the assay with HOP-92 NSCLC, with UO-31 renal, in the assay with CCRF-CEM leukemia and in the assay on SK-OV-3 ovarian was above 100 µM in each case. Further, the TGI in the assay with OVCAR-4 ovarian and in the assay on SW-620 colon was above 100 µM throughout.

As to `Cc1cc(C)c2c(c1)CN1CN2Cc2cc(C)cc(C)c21`, the TGI with A549 NSCLC was above 100 µM; with HT29 colon, 29.9 µM; in the assay with UO-31 renal it was 43.5 µM; in the assay on CCRF-CEM leukemia it was 68.2 µM; with SK-OV-3 ovarian it was 86.5 µM; in the assay with OVCAR-4 ovarian, 50.8 µM. The TGI in the assay with SR leukemia is 39.3 µM; with SW-620 colon, above 100 µM.

For the compound `CCC1(Br)C(=O)NC(=O)N(C2CC(O)C(CO)O2)C1N=[N+]=[N-]` (centres undefined), the TGI with A549 NSCLC, with HT29 colon, with HOP-92 NSCLC, in the assay on UO-31 renal, in the assay with CCRF-CEM leukemia and in the assay with SK-OV-3 ovarian was above 100 µM each time. Moreover, the TGI in the assay with OVCAR-4 ovarian and in the assay with SW-620 colon was above 100 µM each time.

`COc1ccc([C@H]2CC(=O)N3CCCC3N2)cc1` (some centres undefined): the TGI in the assay with A549 NSCLC, with HT29 colon, with HOP-92 NSCLC, in the assay with UO-31 renal, in the assay with CCRF-CEM leukemia and in the assay on SK-OV-3 ovarian was above 100 µM each time. The TGI in the assay on OVCAR-4 ovarian, in the assay with SR leukemia and in the assay on SW-620 colon was above 100 µM throughout.

As for `Fc1cccc(Cl)c1C1SCc2nc3ccccc3n21` (centres undefined), the TGI in the assay with A549 NSCLC is above 100 µM; in the assay with HT29 colon, above 100 µM; in the assay with HOP-92 NSCLC, 37.8 µM; in the assay with UO-31 renal, above 100 µM; in the assay with CCRF-CEM leukemia it was above 100 µM; in the assay on SK-OV-3 ovarian, 62.2 µM. Further, the TGI in the assay with OVCAR-4 ovarian was above 100 µM; in the assay with SR leukemia, 54.4 µM; in the assay on SW-620 colon, above 100 µM.

Regarding `COC(=O)c1nc(NN)[nH]c(=O)c1CCCCCc1c(C(=O)OC)[nH]c(NN)cc1=O`, the TGI in the assay on A549 NSCLC, in the assay with HT29 colon, in the assay with HOP-92 NSCLC, in the assay on UO-31 renal, in the assay on CCRF-CEM leukemia and in the assay on SK-OV-3 ovarian was above 100 µM each time. The values for the TGI in the assay with OVCAR-4 ovarian, in the assay on SR leukemia and in the assay with SW-620 colon were above 100 µM, above 58.9 µM and above 100 µM, respectively.

On to `CC[C@H](C)[C@H](NC(=O)c1cnccn1)C(=O)N(C)[C@H](C[C@@H](OC(C)=O)c1nc(C(=O)N[C@@H](Cc2ccccc2)C[C@H](C)C(=O)OC)cs1)C(C)C`, for which the GI50 was 3.22 µM with A549 NSCLC; 1.06 µM in the assay with HT29 colon; 0.416 µM in the assay on HOP-92 NSCLC; 2.23 µM in the assay on UO-31 renal; 1.15 µM in the assay on CCRF-CEM leukemia; 1.95 µM in the assay on SK-OV-3 ovarian. In addition, the values for the GI50 in the assay on OVCAR-4 ovarian, in the assay on SR leukemia and in the assay with SW-620 colon were 2.52 µM, 0.048 µM and 1.28 µM, respectively. Further, the TGI is above 33.3 µM with A549 NSCLC; 6.75 µM with HT29 colon; 11.4 µM with HOP-92 NSCLC; above 33.3 µM in the assay with UO-31 renal; above 33.3 µM in the assay with CCRF-CEM leukemia; above 33.3 µM in the assay with SK-OV-3 ovarian. For the same compound, the TGI with OVCAR-4 ovarian, in the assay on SR leukemia and with SW-620 colon was above 33.3 µM each time.

Turning to `O=C1[C@@H](c2ccc(Cl)cc2)[C@H]2CC=C[C@H]2N1O`, the TGI in the assay on A549 NSCLC, with HT29 colon, with UO-31 renal, in the assay on CCRF-CEM leukemia, in the assay on SK-OV-3 ovarian and with SW-620 colon was above 100 µM throughout.

With `Cc1cc(Cl)ccc1NC(=O)C(=O)Cc1nc2ccc(C(=O)c3ccccc3)cc2[nH]c1=O`, the TGI with A549 NSCLC, in the assay with HT29 colon, in the assay with HOP-92 NSCLC, in the assay with UO-31 renal, with CCRF-CEM leukemia and in the assay with SK-OV-3 ovarian was above 100 µM in each case. Also, the TGI in the assay with OVCAR-4 ovarian, in the assay with SR leukemia and with SW-620 colon was above 100 µM throughout.

On to `C=C(C)C1CC2C(C)=C(OC(C)=O)C1n1c(=O)c3cc4ccccc4cc3c(=O)n12` (centres undefined), for which the TGI in the assay with A549 NSCLC, with HT29 colon, in the assay on HOP-92 NSCLC, in the assay with UO-31 renal, in the assay on SK-OV-3 ovarian and with OVCAR-4 ovarian was above 100 µM each time. Besides, the TGI with SR leukemia is above 93 µM; in the assay on SW-620 colon it was above 100 µM.
